Consider one compound from patent publication US20250223303A1, “TRICYCLIC BORONIC ACID DERIVATIVE, AND PREPARATION METHOD THEREFOR AND APPLICATION THEREOF” (priority 2021, published 2025).

Experiment [1] addresses T1, OXA-48 (Klebsiella pneumoniae, UniProt Q6XEC0).
T1 construct: purchased GenScript Biotech Co., Ltd
Kind of experiment: Enzyme activity test (FC5 fluorescent substrate), OXA-48. It counts as biochemical. The note with it: enzyme 650 pM, substrate FC5 125 μM. Here is the method: (§1) Compound stock solution: the compound was prepared as a 50 mM DMSO stock solution. […] After aliquoting, the compound stock solutions were stored at −20° C.
(§2) Preparation and storage of antibiotic substrate stock solution: antibiotic fluorescent substrate FC5 was synthesized internally and prepared as a 2 mM stock solution, which was stored at −20° C. after aliquoting.
(§3) Storage of β-lactamases: each […] was synthesized by GenScript Biotech Co., Ltd., and stored at −80° C. after aliquoting to avoid repeated freezing and thawing.
(§4) Preparation of enzyme activity reaction buffer: SBL buffer: PBS pH 7.4, 0.01% (v/v) Triton X-100; MBL buffer: 50 Mm HEPES in PBS pH 7.2, 1 μM ZnSO4, 1 μg/mL BSA, 0.010% v/v Triton X-100
(§5) a) The compound to be tested and buffer were taken out and warmed to room temperature.
(§6) b) Each compound was diluted with DMSO and buffer to the initial experimental concentration (Table 2), and then the compound was diluted 3-fold for a total of 10 concentrations.
(§7) c) Diluted compounds were added to wells 1 to 20 of a 384-well black plate at 2 replicate wells per concentration, 5 μL per well. 5 µL of DMSO was added to wells 21 to 24.
(§8) d) Each enzyme was diluted to the experimental concentration (Table 2) in SBL and MBL buffers, and finally 35 μL/well was added, with a total of 22 wells. 35 μL buffer was added to wells 23 to 24. Wells 21 to well 22 served as the maximum test values (Max), while wells 23 to 24 were designated as the minimum test values (Min).
(§9) e) The 384-well plate was centrifuged quickly and incubated for 10 minutes at room temperature.
(§10) f) The antibiotic substrate FC5 was diluted in buffer to the experimental concentration of each enzyme (Table 2).
(§11) g) The incubated 384-well plate was taken out and FC-5 was added to wells […]. The 384-well plate was centrifuged rapidly and promptly transferred to a microplate reader for reading.
(§12) h) The fluorescence intensity was measured at 355 nm excitation light/460 nm emission light in the microplate reader, and the fluorescence intensity was measured every three minutes for a total of 10 measurements.
(§13) Initial velocity of enzyme reaction V: Subtract the background reading (Min wells) without enzyme from each fluorescence intensity reading, and then perform on a linear regression analysis on each compound concentration group. The slope is the initial velocity of enzyme reaction (V) at each compound concentration.
(§14) Dose-effect curve and IC50 calculation of compounds: The initial velocity of enzyme reaction under the effect of each concentration of compounds was subjected to nonlinear regression fitting. The IC50 (half-maximal inhibitory concentration) of each compound was calculated using the formula […] (Vi: the initial velocity of enzyme reaction at each compound concentration; V0: initial velocity of enzyme reaction without the compound (Max wells). The software used was Graphpad prism 8.

Experiment [2] deals with Acinetobacter baumannii WX-AB013. The experiment is described as follows: MIC test of compounds in combination with antibiotics, Acinetobacter baumannii WX-AB013. The note with it: Acinetobacter baumannii WX-AB013.
Experimental: (§15) 2-Fold gradient dilution of antibiotics: 300 μL of CAMHVIB medium was added to columns 2-12 of a 96-deep well plate. In column 1, 24 μL of antibiotic stock solution and 576 µL of CAMHB medium were added and mixed well, with a concentration of 512 μg/mL. 300 µL of antibiotic solution was transferred from the column 1 to the second column and mixed well. The process was repeated until column 11, and the column 12 was a blank control.
(§16) Dilution of combined compounds: the compound was diluted 400-fold to 32 μg/ml with CAMHB medium.
(§17) Working solution aliquoting: 25 μL of antibiotics was aliquoted into the 96-U bottom plate with a pipette, and 25 μL of combined compound was added to each well. If antibiotics were used alone, 25 μL of CAMHB medium was added.
(§18) Inoculum solution preparation: 5-6 single colonies were selected from the plate and suspended in normal saline. The bacterial suspension was adjusted to 0.2 (i.e., 0.5 McFarland turbidity, with a bacterial concentration was about 1 to 2×10^8 CFU/mL) with a turbidity meter. The bacterial suspension was diluted 100-fold with CAMHB medium for later use.
(§19) Inoculation: 50 μL of inoculum solution was transferred to the above 50 μL compound plate with a pipette.
(§20) Culture: The 96-U bottom plate was placed in an incubator at 37° C. for 18 to 20 h.
Experiment [3] relates to Klebsiella pneumoniae ATCC BAA-1705. The experiment is described as follows: MIC test of compounds in combination with antibiotics, Klebsiella pneumoniae ATCC BAA-1705. The note with it: Klebsiella pneumoniae ATCC BAA-1705 KPC-2.
Experimental: Strain preparation: the strains to be tested were streaked from glycerol tube at −80° C. onto Mueller Hinton II Agar plates. The plates were then placed in a 37° C. incubator and cultured for 18-24 hours.
Media preparation: CAMHB (Mueller Hinton II Broth): 22 g of powder was dissolved in 1 L of purified water and sterilized at 121° C. for 10 min for use. Saline: 8.5 g NaCl was dissolved in 1 L of pure water and sterilized at 121° C. for 30 min for use.
Preparation of compound and antibiotic stock solutions: the compound and antibiotic were dissolved in DMSO or water to 12.8 mg/mL.
as §15, §16, §17, §18, §19, §20
After the incubation, bacterial growth was visually observed, and the test plate was photographed and recorded.
The target in experiment [4] is T2, KPC-2 (Klebsiella pneumoniae, UniProt Q9F663).
T2 construct: purchased GenScript Biotech Co., Ltd
T2 sequence (Q9F663 25-293 limits assumed): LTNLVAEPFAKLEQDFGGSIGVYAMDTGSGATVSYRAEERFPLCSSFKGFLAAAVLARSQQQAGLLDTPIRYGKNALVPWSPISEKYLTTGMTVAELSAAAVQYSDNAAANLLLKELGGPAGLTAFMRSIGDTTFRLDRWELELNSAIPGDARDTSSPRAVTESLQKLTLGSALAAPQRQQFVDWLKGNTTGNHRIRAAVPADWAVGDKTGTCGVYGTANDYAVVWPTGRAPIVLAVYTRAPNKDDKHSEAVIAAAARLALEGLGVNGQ
Kind of experiment: Enzyme activity test (FC5 fluorescent substrate), KPC-2. It counts as biochemical. The settings on record: enzyme 45 pM, substrate FC5 25 μM. How it is done: as §1, §2, §3, §4, §5, §6, §7, §8, §9, §10, §11, §12, §13, §14

Experiment [5] has as its system Acinetobacter baumannii ARLG-1853 OXA-23. The experiment is described as follows: MIC test of compounds in combination with antibiotics, Acinetobacter baumannii ARLG-1853. The note with it: Acinetobacter baumannii ARLG-1853 OXA-23.
Experimental: as §15, §16, §17, §18, §19, §20

T1 sequence (Q6XEC0 23-265 limits assumed): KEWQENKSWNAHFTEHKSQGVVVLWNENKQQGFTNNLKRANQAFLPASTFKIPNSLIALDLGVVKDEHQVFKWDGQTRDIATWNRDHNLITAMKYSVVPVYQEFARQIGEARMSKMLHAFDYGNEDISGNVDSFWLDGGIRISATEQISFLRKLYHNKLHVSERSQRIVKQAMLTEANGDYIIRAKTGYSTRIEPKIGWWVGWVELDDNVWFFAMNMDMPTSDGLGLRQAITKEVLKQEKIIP

Consider `NCCNC1CCC(CC(=O)N[C@H]2Cc3cccc(C(=O)O)c3OB2O)CC1` (some centres unmarked) [VNRX-5133, reference compound], for which the values for the IC50 in experiment [1] and in experiment [4] were 343 nM and 64.2 nM, respectively. For the same compound, the minimum inhibitory concentration (MIC) in experiment [2] (Cefepime + compound (8 μg/mL)) came out at 64 µg/mL; in experiment [2] (Meropenem + compound (8 μg/mL)), 128 µg/mL; in experiment [3] (Cefepime + compound (8 μg/mL)), 0.25 µg/mL; in experiment [3] (Meropenem + compound (8 μg/mL)), 0.125 µg/mL; in experiment [5] (Cefepime + compound (8 μg/mL)), 32 µg/mL; in experiment [5] (Meropenem + compound (8 μg/mL)), 128 µg/mL.
